The source of these data is patent publication US6512009B1, “Combination for the treatment of alcohol and drug dependence containing an opioid antagonist and a NMDA receptor complex modulator” (Lipha, priority 1998, dated 2003).

Where two headings read alike, the source gives them in different places.

The test system of assay [1] is ethanol dependent rats. Nature of the assay: Voluntary ethanol intake in ethanol dependent (alcohol preferring) rats, free choice between 10% ethanol solution and water. The assay is classed as in vivo, Long Evans rats. An excerpt:
Ethanol dependent rats were selected as previously described (Boismare F., Daoust M., Moore N., Saligaut C., Chadelaud M., Chrétien P., Durlach J., Lhuintre J. P., A homotaurine derivative reduces the voluntary intake of ethanol by rats: are cerebral GABA receptors involved?, Pharm. Biochem. Behav., 21, 787-789, 1984).
Adult male Long Evans rats weighing 180±20 g at the beginning of the experiment were obtained from “Centre d'élevage Janvier” (France). The rats were housed in individual cages and had free access to food (UAR, France standard diet). They were kept with an ambient temperature of 21° C. and a 12 hr/12 hr light-dark photoperiod. […] Every other day, fluid intakes and body weights were measured, the drinking bottles were refilled and randomly rotated. Food consumption was also measured each week be weighting food pellets. […]
All the drugs were prepared as saline (NaCl 0.9%) solutions and animals were daily i.p. injected with: acamprosate 100 mg/kg, naltrexone 10 mg/kg, acamprosate 100 mg/kg+naltrexone 10 mg/kg or saline 1 ml/200 g body weight. […] Alcohol intakes were expressed as gram of absolute alcohol drunk per kilo of body weight per day (g.kg.d) for alcohol.
FIG. 1 represents means±sem of ethanol intake, expressed as gram of absolute alcohol during each period of pre-treatment, treatment and post-treatment in all groups of rats. […]

The test system of assay [2] is alcohol dependent patients. Particulars: used together with supportive therapy; cited from earlier work.

`CC(=O)NCCCS(=O)(=O)O` [acamprosate]: the Ethanol intake entry in assay [1] (acamprosate 100 mg/kg daily i.p., 14 days treatment period, p<0.008) is on record as “significantly decreased”.

For the compound `O=C1CC[C@@]2(O)[C@H]3Cc4ccc(O)c5c4[C@@]2(CCN3CC2CC2)[C@H]1O5` [naltrexone], in assay [1], the Ethanol intake entry is on record as “significantly decreased”. For the same compound, in assay [2], the “Rate of relapse to heavy drinking” value is on record as “reduce the rate of relapse to heavy drinking”.
